Assay results as given in article PMC6582339 (2019).

Legend:
[1] = system: OBA1 (DNA, aptamer) CGGGGTGAAACGGGTCCCG; experiment: fluorescence polarization (OTA intrinsic fluorescence); conditions: 10 mM MgCl2; 10 mM Na2HPO4/KH2PO4; pH 7.4, room temperature, 500 nM OTA titrated with aptamer
[2] = system: OBAwt-I3 (DNA, aptamer, inosine at 3) GGGGTGAAACGGGTCCCG; experiment: inosine substitution (Figure S1); conditions: 10 mM MgCl2; 10 mM Na2HPO4/KH2PO4; pH 7.4
[3] = system: OBAwt (DNA, aptamer) GGGGTGAAACGGGTCCCG; experiment: fluorescence polarization (OTA intrinsic fluorescence); conditions: 10 mM MgCl2; 10 mM Na2HPO4/KH2PO4; pH 7.4, room temperature, 500 nM OTA titrated with aptamer
[4] = system: OBA5 (DNA, aptamer) CCGGGGCGAAGCGGGTCCCGG; experiment: as above; conditions: 10 mM MgCl2; 10 mM Na2HPO4/KH2PO4; pH 7.4, room temperature, 500 nM OTA titrated with aptamer
[5] = system: OBAwt-I1 (DNA, aptamer, inosine at 1) GGGGTGAAACGGGTCCCG; experiment: inosine substitution (Figure S1); conditions: 10 mM MgCl2; 10 mM Na2HPO4/KH2PO4; pH 7.4
[6] = system: OBAwt-I6 (DNA, aptamer, inosine at 6) GGGGTGAAACGGGTCCCG; experiment: inosine substitution (Figure S1); conditions: 10 mM MgCl2; 10 mM Na2HPO4/KH2PO4; pH 7.4
[7] = system: OBA6 (DNA, aptamer) GCGGGGCGAAGCGGGTCCCGC; experiment: fluorescence polarization (OTA intrinsic fluorescence); conditions: 10 mM MgCl2; 10 mM Na2HPO4/KH2PO4; pH 7.4, room temperature, 500 nM OTA titrated with aptamer
[8] = system: OBAwt-I12 (DNA, aptamer, inosine at 12) GGGGTGAAACGGGTCCCG; experiment: inosine substitution (Figure S1); conditions: 10 mM MgCl2; 10 mM Na2HPO4/KH2PO4; pH 7.4
[9] = system: OBAwt-I13 (DNA, aptamer, inosine at 13) GGGGTGAAACGGGTCCCG; experiment: inosine substitution (Figure S1); conditions: 10 mM MgCl2; 10 mM Na2HPO4/KH2PO4; pH 7.4
[10] = system: OBAwt-I4 (DNA, aptamer, inosine at 4) GGGGTGAAACGGGTCCCG; experiment: inosine substitution (Figure S1); conditions: 10 mM MgCl2; 10 mM Na2HPO4/KH2PO4; pH 7.4
[11] = system: OBA4 (DNA, aptamer) GGGGTGAAACGGTCCCG; experiment: not stated for this variant (Figure S2); conditions: 10 mM MgCl2; 10 mM Na2HPO4/KH2PO4; printed NB (no binding); pH 7.4
[12] = system: OBAwt-I2 (DNA, aptamer, inosine at 2) GGGGTGAAACGGGTCCCG; experiment: inosine substitution (Figure S1); conditions: 10 mM MgCl2; 10 mM Na2HPO4/KH2PO4; pH 7.4
[13] = system: OBA2 (DNA, aptamer) GGGGCGAAGCGGGTCCCG; experiment: fluorescence polarization (OTA intrinsic fluorescence); conditions: 10 mM MgCl2; 10 mM Na2HPO4/KH2PO4; pH 7.4, room temperature, 500 nM OTA titrated with aptamer
[14] = system: OBAwt-I11 (DNA, aptamer, inosine at 11) GGGGTGAAACGGGTCCCG; experiment: inosine substitution (Figure S1); conditions: 10 mM MgCl2; 10 mM Na2HPO4/KH2PO4; pH 7.4
[15] = system: OBA3 (DNA, aptamer) CGGGGCGAAGCGGGTCCCG; experiment: solution NMR structure; conditions: 10 mM MgCl2; 10 mM Na2HPO4/KH2PO4; pH 7.4, 288-310 K
[16] = system: OBA3 (DNA, aptamer) CGGGGCGAAGCGGGTCCCG; experiment: fluorescence polarization (OTA intrinsic fluorescence); conditions: 10 mM MgCl2; 10 mM Na2HPO4/KH2PO4; pH 7.4, room temperature, 500 nM OTA titrated with aptamer
[17] = system: OBAwt (DNA, aptamer) GGGGTGAAACGGGTCCCG; experiment: 1H NMR imino titration; conditions: 10 mM Mg2+; 10 mM Na2HPO4/KH2PO4; pH 7.4, 288 K, 0.1 mM aptamer
[18] = system: OBA3 (DNA, aptamer) CGGGGCGAAGCGGGTCCCG; experiment: 1H NMR imino spectra; conditions: 10 mM MgCl2; 10 mM Na2HPO4/KH2PO4; pH 7.4, 2 equivalents of OTB
[19] = system: OBA1 (DNA, aptamer) CGGGGTGAAACGGGTCCCG; experiment: 1H NMR imino spectra; conditions: 10 mM MgCl2; 10 mM Na2HPO4/KH2PO4; pH 7.4, 2 equivalents of OTB
[20] = system: OBA2 (DNA, aptamer) GGGGCGAAGCGGGTCCCG; experiment: 1H NMR imino spectra; conditions: 10 mM MgCl2; 10 mM Na2HPO4/KH2PO4; pH 7.4, 2 equivalents of OTB

K d [1] [µM] | binding [2] | K d [3] [µM] | K d [4] [µM] | binding [5] | binding [6] | K d [7] [µM] | binding [8] | binding [9] | binding [10] | binding [11] | binding [12] | K d [13] [µM] | binding [14] | binding [15] | K d [16] [µM] | binding [17] | binding [18] | binding [19] | binding [20] | Structure (SMILES)
5.9 ± 0.1 | no | 81 ± 2 | 1.9 ± 0.1 | no | no | 2.4 ± 0.1 | yes | no | no | no | no | 26.2 ± 0.4 | no | yes | 1.4 ± 0.1 | – | – | – | – | C[C@@H]1Cc2c(Cl)cc(C(=O)N[C@@H](Cc3ccccc3)C(=O)O)c(O)c2C(=O)O1
– | – | – | – | – | – | – | – | – | – | – | – | – | – | – | – | no | weak | weak | weak | C[C@@H]1Cc2ccc(C(=O)N[C@@H](Cc3ccccc3)C(=O)O)c(O)c2C(=O)O1
